Experimental data from PMC9482650, “Quantitative fragmentomics allow affinity mapping of interactomes” (Nature Communications, 2022).
Ends that are not written are not given here. * marks the point of attachment. Biotin = O=C1N[C@H]2[C@H](CS[C@H]2CCCCC(=O)*)N1; ttds = NCCCOCCOCCOCCCNC(=O)CCC(=O)*

Tests used:
[1] = tested on: MAGI1; test: PBM-AP-MS from Jurkat extract; type: binding, Homo sapiens; conditions: prey MAGI1, PBM peptide bait
Protocol: (§1) For PBM-AP-MS experiments, 30 μl streptavidin resin was mixed with biotin or peptide at 50–60 μM concentration in 6–6.5 resin volume for 60 min to achieve resin saturation. For PDZ-AP-MS experiments, 30 μl streptavidin resin was mixed with biotinylated MBP or MBP-PDZ at 40-50 μM concentration in >1000× resin volume for 60 min to achieve resin saturation. After saturation, resins were washed a single time (ten resin volume, holdup buffer), and were depleted with biotin (1 mM biotin, 5–10 resin volume, 10 min). Finally, resins were washed two times. 0.5 ml 2 mg/ml cell lysate was added to the dry resin (1 mg total input) and were incubated at 4 °C for 2 h. Then, the beads were washed three times with 10 resin volume buffer containing: 50 mM TRIS pH 8.5, 150 mM NaCl, 1% TritonX-100, 10× complete EDTA-free protease inhibitor cocktail, 2 mM EDTA, 1 mM TCEP. Then, the beads were washed two times with ten resin volume buffer containing: 50 mM TRIS pH 8.5, 150 mM NaCl, 1 mM TCEP. Finally, captured protein was eluted from the resin in two steps and the eluted fractions were pooled. For each elution the beads were incubated for 30 min with three resin volume buffer containing: 20 mM TRIS pH8.5, 100 mM NaCl, 500 μM TCEP, 8 M Urea. Between each step, the beads were separated by mild centrifugation and the supernatant was removed by gentle pipetting.
(§2) Proteins were identified by database searching using SequestHT (Thermo Fisher Scientific) with Proteome Discoverer 2.4 software (PD2.4, Thermo Fisher Scientific) on human FASTA database downloaded from SwissProt (reviewed, release 2020_11_27, 20304 entries, https://www.uniprot.org/). Precursor and fragment mass tolerances were set at 7 ppm and 0.6 Da respectively, and up to two missed cleavages were allowed. Oxidation (M, +15.995 Da) was set as variable modification, and Carbamidomethylation (C, +57.021 Da) as fixed modification. Peptides and proteins were filtered with a false discovery rate at 1%. Label-free quantification was based on the extracted ion chromatography intensity of the peptides. All samples were measured in technical triplicates. The measured extracted ion chromatogram (XIC) intensities were normalized based on median intensities of the entire dataset to correct minor loading differences. For statistical tests and enrichment calculations, not detectable intensity values were treated with an imputation method, where the missing values were replaced by random values similar to the 10% of the lowest intensity values present in the entire dataset. Unpaired two-tailed T-test, assuming equal variance, were performed on obtained log2 XIC intensities. The detection threshold for enriched proteins in AP-MS experiments were analyzed above twofold enrichment with <0.01 P value. Then, proteins with PDZ-domains or PBMs were extracted from the list of enriched proteins. In case only a specific isoform of the detected protein contains a PBM, the identified peptide fragments were manually checked to check which isoform(s) were most likely detected. All raw LC-MS/MS data (from 165 runs) have been deposited to the ProteomeXchange via the PRIDE database with identifier PXD027743.

[2] = tested on: DLG1; test: PBM-AP-MS from Jurkat extract; type: binding, Homo sapiens; conditions: prey DLG1, PBM peptide bait
Protocol: as §1, §2

[3] = tested on: SCRIB; test: PBM-AP-MS from Jurkat extract; type: binding, Homo sapiens; conditions: prey SCRIB, PBM peptide bait
Protocol: as §1, §2

[4] = tested on: CASK; test: PBM-AP-MS from Jurkat extract; type: binding, Homo sapiens; conditions: prey CASK, PBM peptide bait
Protocol: as §1, §2

[5] = tested on: HaCat cell extract preys; test: PBM-AP-MS, PBM peptide baits; type: binding, human

## HPV35E6 ({Biotin-ttds}-SKPTRRETEV)
[1]
  Enrichment values compared to biotin controls: 54.3
[2]
  Enrichment values compared to biotin controls: 596.6
[3]
  Enrichment values compared to biotin controls: 314.5
[4]
  Enrichment values compared to biotin controls: 12.7
[5]; prey AHNAK2, PBM peptide bait
  Enrichment values compared to biotin controls: 0.845
[5]; prey AHNAK, PBM peptide bait
  Enrichment values compared to biotin controls: 0.7
[5]; prey DLG1, PBM peptide bait
  Enrichment values compared to biotin controls: 5.3
[5]; prey GORASP2, PBM peptide bait
  Enrichment values compared to biotin controls: 0.7
[5]; prey InaDl, PBM peptide bait
  Enrichment values compared to biotin controls: 0.6
[5]; prey LAP2, PBM peptide bait
  Enrichment values compared to biotin controls: 0.849
[5]; prey LIN7C, PBM peptide bait
  Enrichment values compared to biotin controls: 269.9
[5]; prey MAGI3, PBM peptide bait
  Enrichment values compared to biotin controls: 4.3
[5]; prey MPP5, PBM peptide bait
  Enrichment values compared to biotin controls: 0.7
[5]; prey MPP6, PBM peptide bait
  Enrichment values compared to biotin controls: 0.8
[5]; prey MPP7, PBM peptide bait
  Enrichment values compared to biotin controls: 30.8
[5]; prey NHERF2, PBM peptide bait
  Enrichment values compared to biotin controls: 0.665
[5]; prey NHERF, PBM peptide bait
  Enrichment values compared to biotin controls: 0.215
[5]; prey PDLIM1, PBM peptide bait
  Enrichment values compared to biotin controls: 0.569
[5]; prey PDLIM2, PBM peptide bait
  Enrichment values compared to biotin controls: 1.6
[5]; prey PDLIM4, PBM peptide bait
  Enrichment values compared to biotin controls: 1.0
[5]; prey PDLIM5, PBM peptide bait
  Enrichment values compared to biotin controls: 1.1
[5]; prey PDLIM7, PBM peptide bait
  Enrichment values compared to biotin controls: 0.422
[5]; prey PTPN3, PBM peptide bait
  Enrichment values compared to biotin controls: 0.9
[5]; prey SCRIB, PBM peptide bait
  Enrichment values compared to biotin controls: 3.1
[5]; prey SNTB2, PBM peptide bait
  Enrichment values compared to biotin controls: 7.5
[5]; prey SNX27, PBM peptide bait
  Enrichment values compared to biotin controls: 3.3
[5]; prey SYNJ2BP, PBM peptide bait
  Enrichment values compared to biotin controls: 25.2
  Fold changes HaCat, SYNJ2BP: 25.2
[5]; prey TJP1, PBM peptide bait
  Enrichment values compared to biotin controls: 1.3
[5]; prey TJP2, PBM peptide bait
  Enrichment values compared to biotin controls: 1.8
[5]; prey TX1B3, PBM peptide bait
  Enrichment values compared to biotin controls: 3.3

## HPV18E6
[1]
  Enrichment values compared to biotin controls: 134.3
[2]
  Enrichment values compared to biotin controls: 519.3
[3]
  Enrichment values compared to biotin controls: 288.2
[4]
  Enrichment values compared to biotin controls: 15.2
[5]; prey AHNAK2, PBM peptide bait
  Enrichment values compared to biotin controls: 0.8
[5]; prey AHNAK, PBM peptide bait
  Enrichment values compared to biotin controls: 1.4
[5]; prey DLG1, PBM peptide bait
  Enrichment values compared to biotin controls: 2.3
[5]; prey GORASP2, PBM peptide bait
  Enrichment values compared to biotin controls: 9.0
[5]; prey InaDl, PBM peptide bait
  Enrichment values compared to biotin controls: 8.0
[5]; prey LAP2, PBM peptide bait
  Enrichment values compared to biotin controls: 0.9
[5]; prey LIN7C, PBM peptide bait
  Enrichment values compared to biotin controls: 215.4
[5]; prey MAGI3, PBM peptide bait
  Enrichment values compared to biotin controls: 7.4
[5]; prey MPP5, PBM peptide bait
  Enrichment values compared to biotin controls: 11.3
[5]; prey MPP6, PBM peptide bait
  Enrichment values compared to biotin controls: 5.0
[5]; prey MPP7, PBM peptide bait
  Enrichment values compared to biotin controls: 48.3
[5]; prey NHERF2, PBM peptide bait
  Enrichment values compared to biotin controls: 1.8
[5]; prey NHERF, PBM peptide bait
  Enrichment values compared to biotin controls: 2.5
[5]; prey PDLIM1, PBM peptide bait
  Enrichment values compared to biotin controls: 3.2
[5]; prey PDLIM2, PBM peptide bait
  Enrichment values compared to biotin controls: 0.8
[5]; prey PDLIM4, PBM peptide bait
  Enrichment values compared to biotin controls: 1.0
[5]; prey PDLIM5, PBM peptide bait
  Enrichment values compared to biotin controls: 0.7
[5]; prey PDLIM7, PBM peptide bait
  Enrichment values compared to biotin controls: 0.5
[5]; prey PTPN3, PBM peptide bait
  Enrichment values compared to biotin controls: 1.7
[5]; prey SCRIB, PBM peptide bait
  Enrichment values compared to biotin controls: 0.6
[5]; prey SNTB2, PBM peptide bait
  Enrichment values compared to biotin controls: 15.4
[5]; prey SNX27, PBM peptide bait
  Enrichment values compared to biotin controls: 0.641
[5]; prey SYNJ2BP, PBM peptide bait
  Enrichment values compared to biotin controls: 58.4
[5]; prey TJP1, PBM peptide bait
  Enrichment values compared to biotin controls: 8.8
[5]; prey TJP2, PBM peptide bait
  Enrichment values compared to biotin controls: 1.8
[5]; prey TX1B3, PBM peptide bait
  Enrichment values compared to biotin controls: 1.6

## HPV30E6 ({Biotin-ttds}-RHTTSTETAV)
[1]
  Enrichment values compared to biotin controls: 25.1
[2]
  Enrichment values compared to biotin controls: 488.6
[3]
  Enrichment values compared to biotin controls: 266.4
[4]
  Enrichment values compared to biotin controls: 11.1
[5]; prey AHNAK2, PBM peptide bait
  Enrichment values compared to biotin controls: 1.2
[5]; prey AHNAK, PBM peptide bait
  Enrichment values compared to biotin controls: 1.4
[5]; prey DLG1, PBM peptide bait
  Enrichment values compared to biotin controls: 3.4
[5]; prey GORASP2, PBM peptide bait
  Enrichment values compared to biotin controls: 0.566
[5]; prey InaDl, PBM peptide bait
  Enrichment values compared to biotin controls: 0.8
[5]; prey LAP2, PBM peptide bait
  Enrichment values compared to biotin controls: 1.6
[5]; prey LIN7C, PBM peptide bait
  Enrichment values compared to biotin controls: 207.8
[5]; prey MAGI3, PBM peptide bait
  Enrichment values compared to biotin controls: 2.1
[5]; prey MPP5, PBM peptide bait
  Enrichment values compared to biotin controls: 1.9
[5]; prey MPP6, PBM peptide bait
  Enrichment values compared to biotin controls: 1.8
[5]; prey MPP7, PBM peptide bait
  Enrichment values compared to biotin controls: 42.8
[5]; prey NHERF2, PBM peptide bait
  Enrichment values compared to biotin controls: 1.1
[5]; prey NHERF, PBM peptide bait
  Enrichment values compared to biotin controls: 2.3
[5]; prey PDLIM1, PBM peptide bait
  Enrichment values compared to biotin controls: 2.3
[5]; prey PDLIM2, PBM peptide bait
  Enrichment values compared to biotin controls: 1.2
[5]; prey PDLIM4, PBM peptide bait
  Enrichment values compared to biotin controls: 1.3
[5]; prey PDLIM5, PBM peptide bait
  Enrichment values compared to biotin controls: 0.9
[5]; prey PDLIM7, PBM peptide bait
  Enrichment values compared to biotin controls: 0.658
[5]; prey PTPN3, PBM peptide bait
  Enrichment values compared to biotin controls: 1.3
[5]; prey SCRIB, PBM peptide bait
  Enrichment values compared to biotin controls: 0.8
[5]; prey SNTB2, PBM peptide bait
  Enrichment values compared to biotin controls: 9.0
[5]; prey SNX27, PBM peptide bait
  Enrichment values compared to biotin controls: 0.9
[5]; prey SYNJ2BP, PBM peptide bait
  Enrichment values compared to biotin controls: 21.9
  Fold changes HaCat, SYNJ2BP: 21.9
[5]; prey TJP1, PBM peptide bait
  Enrichment values compared to biotin controls: 3.8
[5]; prey TJP2, PBM peptide bait
  Enrichment values compared to biotin controls: 0.9
[5]; prey TX1B3, PBM peptide bait
  Enrichment values compared to biotin controls: 0.9
